These are literature values, as cited in patent US20130209380A1, “MOISTURIZING COMPOSITION WITH SPF 30” (GALDERMA S.A., priority 2010, published 2013).

The data set relates to stratum corneum. Conditions: In vitro human skin model.

On to `CCCCCCCCCCCCCCC[C@@H](O)[C@H](CO)NC(=O)C(O)CCCCCCCCCCCCCC` (some centres unmarked) [pseudo ceramide 5, N-(2-hydroxyhexadecanoyl)sphinganine], for which the “affinity and diffusion into the stratum corneum” value is given as “good”; the “effect on synthesis of ceramides 1-2-3” value is “induction synthesis of ceramides 1-2-3”.
